This is an account of results in patent publication US7704514B2 (priority 2003, dated 2010).

Assay [1] deals with Influenza vaccine (Fluvirin)-specific IgG1 and IgG2b antibodies. Set-up: species or system C57BL/6 mice. The note with it: mouse, in vivo, sc.
In assay [2] the test system is HBsAg-specific IFN-γ and IL-4 production. It counts as in vivo, C57BL/6 mice. The note with it: C57BL/6, s.c. flank day 0 and 56; co-injected with HBsAg 5 μg/mouse; Alum, pR and KLK: after boost. How it is done: Experimental setup (5 mice/group/timepoint): • 1. HBsAg • 2. HBsAg+Alum • 3. HBsAg+I-ODN 2 • 4. HBsAg+I-ODN 2b • 5. HBsAg+o-d(IC)13 • 6. HBsAg+pR • 7. HBsAg+KLK • 8. HBsAg+pR+I-ODN 2 • 9. HBsAg+pR+I-ODN 2b • 10. HBsAg+pR+o-d(IC)13 • 11. HBsAg+KLK+I-ODN 2 • 12. HBsAg+KLK+I-ODN 2b • 13. HBsAg+KLK+o-d(IC)13
On day 0 and day 56 mice were injected subcutaneously into the right flank with a total volume of 100 μl/mouse containing the above mentioned compounds. The analysis of the immune response was performed at day 7, day 21 and day 50 after first and second injection, respectively. Spleen cells of five mice per group per time point were restimulated ex vivo with 10 μg/ml HBsAg and ELIspot assays were performed in order to analyse the HBsAg-specific IFN-γ (type 1 immune response) as well as IL-4 (type 2 immune response) production.

The subject of assay [3] is peptide-specific IFN-γ producing cells. On the set-up: species or system C57B1/6 mice. The note with it: mouse, in vivo, sc.
Assay [4] deals with HCV-peptide specific IFN-γ production by CD4+ and CD8+ T cells. It is filed as in vivo, HLA-A*0201 transgenic mice (HHD.1). The note with it: HHD.1 mice; co-injection of the five HCV-derived peptides (20 μg each) with KLK 10 nmol/o-d(IC)13 0.4 nmol s.c. days 0, 14, 28; day 35. How it is done: Experimental setup (5 mice/group): • 1. HCV peptides • 2. HCV peptides+KLK+o-d(IC)13
On days 0, 14 and 28 HHD.1 mice were injected s.c. into both hind footpads with a total volume of 100 μl/mouse (50 μl/footpad) containing the above listed compounds. At day 35 (7 days after last vaccination) CD4^+ as well as CD8^+ T cells were isolated by magnetic separation (MACS, Miltenyi) from single cell suspensions of spleen cells. T cells were incubated with medium (background control) or were restimulated with irradiated spleen cells from naïve HHD.1 mice as APC in the presence of either the different peptides used for vaccination or the irrelevant peptide p1274. After overnight incubation, the IFN-γ production was analyzed using an ELIspot assay.

The next assay deals with Staphylococcus aureus. Particulars: literature (Nakajima 1997; Cho 1999); cited from earlier work.
Another assay has as its system human neutrophils. Particulars: cited from earlier work.

No end group written: not given here.

KLKLLLLLKLK-OH: in assay [1], the “Influenza vaccine-specific IgG1 (type 2 response), serum ELISA” value is given as “induces the production of Influenza vaccine-specific IgG1” and the “Influenza vaccine-specific IgG2b (humoral type 1 response), serum ELISA” value is reported as “no specific IgG2b response is detectable”. In assay [2], the “HBsAg-specific IL-4 production (type 2 immune response) compared to injection of HBsAg alone, spleen cell ELIspot” value is recorded as “Slightly increased”.
On to IASNENMETM [p1574, reference compound], for which, in assay [3], the “peptide-specific IFN-γ spots of spleen cells after restimulation with the respective peptide (ELIspot)” value (shortened to “peptide-specific IFN-γ spots”) is “do not show any specific spots”.
Consider “Poly-L-Arginine [pR, reference compound]”, for which the “Influenza vaccine-specific IgG2b (humoral type 1 response), serum ELISA” value in assay [1] is reported as “no specific IgG2b response is detectable”. The “HBsAg-specific IL-4 production (type 2 immune response) compared to injection of HBsAg alone, spleen cell ELIspot” value in assay [2] is on record as “Slightly increased”.
Take TMLYNKMEF [p1569]: in assay [3], the “peptide-specific IFN-γ spots” value is “specifically release IFN-γ”.
On to DLMGYIPAV [p87], for which, in assay [4], the “IFN-γ produced by CD4+ T cells against the peptide (ELIspot)” value (shortened to “IFN-γ produced by CD4+ T cells”) was “high amounts” and the “IFN-γ production by CD8+ T cells against the peptide (ELIspot)” value was “strong”.
With SSIAAQDAL [p1600], in assay [3], the “peptide-specific IFN-γ spots” value is recorded as “do not show any specific spots”.
KLKLLLLLKLK-NH2: in the assay on Staphylococcus aureus, the “chemotherapeutic activity in Staphylococcus aureus-infected mice” value is reported as “significant chemotherapeutic activity”. For the same substance, the “production of the superoxide anion (O2−) by human neutrophils via cell surface calreticulin” value in the assay with human neutrophils is “activated to produce the superoxide anion”.
Consider CINGVCWTV [p89], for which, in assay [4], the “IFN-γ produced by CD4+ T cells” value is “high amounts” and the “IFN-γ production by CD8+ T cells against the peptide (ELIspot)” value is reported as “strong”.
Turning to GYKVLVLNPSVAAT [p84], the “IFN-γ produced by CD4+ T cells” value in assay [4] was “high amounts”.
As to VTILNLALL [p1664], the “peptide-specific IFN-γ spots” value in assay [3] is “specifically release IFN-γ”.
In the case of HMWNFISGIQYLAGLSTLPGNPA [p1426], the “IFN-γ produced by CD4+ T cells” value in assay [4] is on record as “high amounts”.
